Series [1] relates to HIV-1 LTR promoter. It counts as cell-based.
Series [2] has as its system HIV-1 LTR promoter. Description: Two-reporter system (LTR-d2GFP and LTR-mCherry) noise measurement. The following applies: FIG. 6E; for d2GFP noise / mCherry noise: known transcriptional activators; for transcriptional burst frequency (decreasing noise in mCherry): transcriptional modifiers. It is filed as cell-based. The procedure: Without being bound by theory, a destabilized reporter is required to observe transcriptional noise with shorter time scales. GFP noise magnitude (quantified by the variance over the mean fluorescence squared, CV^2) and mean fluorescence were measured by high-throughput flow cytometry 24 hours post 10 uM drug exposure. To control for extrinsic variability in gene expression due to cell volume and state a conservative gating on the population forward versus side scatter was applied (See General Methods). A second LTR driving a long-lived mCherry reporter was integrated and screened alongside the destabilized reporter drug target to control for fluctuations in global resources and post-transcriptional noise sources (FIG. 6E).
To distinguish between compounds that primarily target transcription versus post-transcriptional processes and global resources (extrinsic noise) a second reporter of the LTR promoter driving a stable mCherry gene was included in the same targeted cell population used in the drug noise screen (FIG. 6E). The stable reporter averages out and is unaffected by fluctuations due to episodic transcription. Theory predicts that the destabilized d2GFP reporter can detect transcriptional bursting noise contributions (γp>>kon,koff, where γp is the fluorescent reporter degradation rate) while the two reporters together will move their noise magnitudes to changes in non-transcriptional noise sources. Filtering out non-transcriptional noise signatures of VM hits increases the probability for synergistic reactivation of latency. Noise from the two reporters was compared using the same processing as the LTR-d2GFP. The LTR-mCherry ΔCV^2 of the 85 selected VMs primarily land along the ΔCV^2 d2GFP axis. […]. Of these 25 compounds 15 were identified as modifiers of cell cycle, ATP, inflammation, post-translational modifications, and translation.
In addition to the GFP reporter in the LTR-d2GFP cell line, an LTR driving a long half-life mCherry reporter was present in the cell line. […] To remove compounds that altered CV^2 post transcriptionally, compounds that affected the CV^2 long-lived red reporter while conserving its mean mCherry level were removed. This method continues development of the original and decade-old 2-reporter system for intrinsic versus extrinsic noise measurements in bacteria (Elowitz et al., (2002) Science 297:1183-1186).

Series [3] concerns latent HIV-1 in JLat 8.6 cells. It is filed as cell-based.
For series [4] the following is noted: >500 nM for more than 2 days; Williams et al., 2004; cited from earlier work.
The next series relates to JLat cell line 8.6. The procedure:
FIG. 17 schematically depicts reactivation percentage versus drug toxicity for conventional reactivation cocktails (e.g. TNF+Prostratin, SAHA+Prostratin, SAHA+TNF+Prostratin) and 21 cocktails containing noise-enhancer compounds in combination with TNF+Prostratin. Controls: TNF alone, Prostratin alone, and Untreated, as indicated. Measurements were performed in duplicate on JLat cell line 8.6 after 48 h treatment. […] Details are described, e.g., in Example 9.
To test whether reactivation could be further optimized, the doses of noise enhancers and activators were varied (FIG. 14).

Series [5] deals with HIV-1 LTR promoter. Description: Two-reporter system (LTR-d2GFP and LTR-mCherry) noise measurement. It counts as cell-based. The following applies: alternate set of integration sites.
In series [6] the test system is HIV-1 LTR promoter. The following applies: shotgun imaging approach, Boehm et al., 2013; cited from earlier work.
Series [7] concerns latent HIV-1 in JLat 9.2 cells. Kind of series: HIV-1 latency reactivation in JLat 9.2 cells. It counts as cell-based.
Description: Jurkat cells were cultured in RPMI 1640 supplemented with 10% FBS and 1% penicillin-streptomycin. JLat 6.3, JLat 8.6, and JLat 9.2 cells are Jurkat T cell lines containing integrated but transcriptionally latent HIV-1 proviruses.
Drug treatments were performed for 24 hours at 10 uM final concentration in 96-well plates. Compounds were automatically added into 200 μl cultures at the final concentration of 0.1% DMSO. […] Plates were kept in the incubator until measurement and each well was automatically mixed before samples were analyzed. 5×10^4 of all live cells that passed a specific forward scatter (FSC)—side scatter (SSC) gate were collected from each well for noise magnitude measurements from which a conservative gating was applied for about 3×10^3 cells of similar FSC vs SSC to reduce extrinsic noise contributions primarily due to differences in cell volume and state. Each 96-well plate included a column of untreated control cells, cells treated with TNFα (positive control) and one well of non-′ fluorescent naïve Jurkat cells. For HIV-1 reactivation experiments 1×10^4 live cells were collected.
In series [8] the test system is latent HIV-1 in JLat 15.4. Kind of series: HIV-1 latency reactivation in JLat 15.4 cells. It is filed as cell-based.
Series [9] deals with latent HIV-1 in primary T-cells. It is filed as cell-based. The following applies: primary T-cell model. As for the experimental part:
FIG. 18A schematically depicts a primary T-cell model of HIV-1 latency 48 h after reactivation with PMA or a subset of noise enhancers (% reactivation percentage is calculated relative to maximal reactivation potential). […] The horizontal line represents the mean calculated Bliss Independence Score (C. I. Bliss, Ann. Appl. Biol. 26:585-615 (1939)), a measure for strict additivity for all of the compounds. FIG. 18B schematically depicts stochastic simulations of noise suppression, which reduces noise without altering the mean expression level but limits reactivation induced by an activator. […] Details are described, e.g., in Example 10.

The subject of another series is latent HIV-1. As to conditions: Bocklandt et al., 2003; cited from earlier work.
Where [10] appears, read: known transcriptional modulators applied to the isoclone target, FIG. 6D.

Entries after “also recorded” stand apart in the source; their conditions may differ. Structures can show the parent of a compound that is named as a salt. Where two headings read alike, the source gives them in different places.

Here are results for six compounds from patent US10184933B2, “Compositions, systems and methods for gene expression noise drug screening and uses thereof” (priority 2013, dated 2019).

As for `CC(=O)O[C@@]12C[C@@H](C)[C@@]3(O)[C@@H](C=C(CO)C[C@]4(O)C(=O)C(C)=C[C@@H]34)[C@@H]1C2(C)C` [Prostratin, 12-deoxyphorbol 13-acetate], the burst frequency result with HIV-1 LTR promoter [1] (activator drugs, FIG. 6D) is listed as “increase burst frequency”. Moreover, in the series with HIV-1 LTR promoter [1] (setting [10]), the mean expression level entry is listed as “increase mean expression level” and the “variability in gene expression (noise magnitude)” value (“variability in gene expression” for short) was “decrease noise magnitude”. In addition, the “variability in gene expression” value with HIV-1 LTR promoter [1] (known transcriptional modulators applied to the isoclone target, FIG. 6D, listed as prostratin) is on record as “decrease variability in gene expression”. Besides, in the series with HIV-1 LTR promoter [2], the d2GFP noise entry was “decrease both mCherry and d2GFP noise”; the mCherry noise entry was “decrease both mCherry and d2GFP noise”; the “transcriptional burst frequency (decreasing noise in mCherry)” value was “increase transcriptional burst frequency”. For the same compound, the “reactivation by activator alone” value in series [3] (Prostratin alone, 48 hr) is 6%. Also, the toxicity entry in [4] was “substantial growth arrest and cell death”.

Consider `O=C(CCCCCCC(=O)Nc1ccccc1)NO` [SAHA, N-hydroxy-N′-phenyl-octanediamide], for which the “identified as variability enhancer (VE) in noise screen” value in the series with HIV-1 LTR promoter [1] (Pharmakon 1600 library, 10 uM, 24 hours, FIG. 10) is “variability enhancers”. Further, the “variability in gene expression” value with HIV-1 LTR promoter [1] (setting [10]) was “increase variability in gene expression; also recorded: variability enhancers”. Further, in the series with HIV-1 LTR promoter [2], the d2GFP noise entry is on record as “increase d2GFP noise”, the mCherry noise entry is “decrease mCherry noise” and the “transcriptional burst frequency (decreasing noise in mCherry)” value is recorded as “increase transcriptional burst frequency”. Also, the “off-target cytotoxicity for uninfected cells” value in the series with JLat cell line 8.6 is recorded as “substantial off-target cytotoxicity”. Besides, in the series with HIV-1 LTR promoter [5], the “transcriptional variability (d2GFP) with dose response” value was “increasing transcriptional variability”.

Consider `Cc1sc2c(c1C)C(c1ccc(Cl)cc1)=N[C@@H](CC(=O)OC(C)(C)C)c1nnc(C)n1-2` [JQ1, t-Butyl-2-((6S)-4-(4-chlorophenyl)-2,3,9-trimethyl-6H-thieno[3,2-f][1,2,4]triazolo[4,3-a][1,4]diazepin-6-yl)acetate], for which the “variability in gene expression” value in the series with HIV-1 LTR promoter [1] (setting [10]) is “increase variability in gene expression; also recorded: variability enhancers”. Further, the “noise magnitude across integration sites” value in the series with HIV-1 LTR promoter [6] is reported as “global increase in noise magnitude”.

`COC(=O)C1=C(C)NC(C)=C(C(=O)OCCN2CCN(C(c3ccccc3)c3ccccc3)CC2)C1c1cccc([N+](=O)[O-])c1` (stereo not shown) [VS1, manidipine hydrochloride]: the “decrease of TNF-induced reactivation” value in series [3] (JLat 8.6) and in series [8] was roughly 40% in each case. The “decrease of TNFα-mediated reactivation” value in [7] is “about 40%”. The “decrease of Prostratin-induced reactivation” value in [9] is recorded as roughly 50%.

With `CC1=C[C@H]2[C@@]3(O)[C@H](C)C[C@]4(OC(=O)Cc5ccccc5)C([C@@H]3C=C(CO)C[C@]2(O)C1=O)C4(C)C` (stereo partly shown) [DPP, 12-deoxyphorbol 13-phenylacetate], the “potency relative to prostratin” value with latent HIV-1 is 20-40 fold.

Consider `CC(/C=C/C(=O)NO)=C\[C@@H](C)C(=O)c1ccc(N(C)C)cc1` [TSA, [R-(E,E)]-7-[4-(Dimethylamino)phenyl]-N-hydroxy-4,6-dimethyl-7-oxo-2,4-heptadienamide], for which the “variability in gene expression” value in the series with HIV-1 LTR promoter [1] (setting [10]) is “increase variability in gene expression; also recorded: variability enhancers”. For the same compound, in the series on HIV-1 LTR promoter [2], the d2GFP noise entry is “increase d2GFP noise”, the mCherry noise entry is “decrease mCherry noise” and the “transcriptional burst frequency (decreasing noise in mCherry)” value is reported as “increase transcriptional burst frequency”. In addition, the “transcriptional variability (d2GFP) with dose response” value with HIV-1 LTR promoter [5] is given as “increasing transcriptional variability”.
